# Data reported in patent US10294248B2, “Beta-lactamase inhibitors” (VenatoRx Pharmaceuticals, Inc., priority 2013, dated 2019).
# Columns and labels:
# [1] = system: P. aeruginosa Ps296 expressing VIM-2; test: Broth microdilution MIC, P. aeruginosa Ps296 VIM-2; format: cell-based; details: fixed 4 μg/mL meropenem; CAMHB, 16-20 hours at 37° C.
# How it was run: (§1)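 CAMHB, CLSI broth microdilution; strains pre-grown 3-5 h. Compound 32–0.25 μg/ml (2-fold series) + fixed β-lactam 4 μg/ml overlay. 37° C, 16-20 h; MIC scored by eye.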
# [2] = system: E. coli ESBL4 expressing CTX-M-15; test: Broth microdilution MIC, E. coli ESBL4 CTX-M-15; format: cell-based; details: fixed 4 μg/mL ceftazidime; CAMHB, 16-20 hours at 37° C.
# How it was run: as §1
# [3] = system: E. cloacae 144200 expressing Class C P99 AmpC; test: Broth microdilution MIC, E. cloacae 144200 p99 AmpC; format: cell-based; details: fixed 4 μg/mL ceftazidime; CAMHB, 16-20 hours at 37° C.
# How it was run: as §1
# [4] = target: T1, OXA-1 β-lactamase (Class D oxacillinase) (Escherichia coli, UniProt P13661); test: β-Lactamase inhibition, OXA-1; format: biochemical; details: nitrocefin 100 μM, 486 nm; 15 min preincubation at 37° C., PBS pH 7.4
# T1 construct: made in house; host or cells: E. coli BL21(DE3)
# T1 sequence (P13661 26-276): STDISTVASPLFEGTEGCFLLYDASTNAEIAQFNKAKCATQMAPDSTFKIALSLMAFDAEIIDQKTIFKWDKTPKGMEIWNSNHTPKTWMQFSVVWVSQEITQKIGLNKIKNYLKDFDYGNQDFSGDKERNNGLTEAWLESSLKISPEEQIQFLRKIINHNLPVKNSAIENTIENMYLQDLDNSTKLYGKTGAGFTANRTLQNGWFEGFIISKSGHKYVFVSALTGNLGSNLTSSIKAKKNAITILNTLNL
# Procedure: (§2) For SHV-5, Kpc-2, p99AmpC and OXA-1 β-lactamases, E. coli BL21(DE3) bacterial cells carrying expression plasmids (expressed as native untagged proteins) for the individual β-lactamases were grown in 1 L of Superbroth (Teknova Inc. Hollister, Calif.) supplemented with 100 μg/ml kanamycin selection and 1×5052 (0.5% glycerol, 0.05% glucose and 0.2% α-lactose) at 35° C. for 18-20 hours. Cells were harvested by centrifugation (4,000×g, 4° C., 20 min), resuspended in 50 ml of 10 mM HEPES pH 7.5 ( 1/20 of the initial volume). The cells were lysed by sonication (5 pulses of 45 seconds) at 45 W on ice. The lysates were clarified by centrifugation at 10,000×g for 40 minutes at 4° C. Samples were diluted 5-fold in 50 mM sodium acetate pH 5.0, stored overnight at 4° C., after which they were centrifuged at 10,000×g for 30 minutes to clarify, and filtered through 0.45 μm filters. The samples were loaded onto a 5 ml Capto S sepharose cation exchange column (GE Healthcare) pre-equilibrated with 50 mM sodium acetate pH 5.0. The column was washed with 5 column volumes of 50 mM sodium acetate pH 5.0 to wash out unbound protein and a linear gradient of NaCl (0 to 500 mM) was used to elute the protein (over 16 CV) from the column. Fractions were assayed for β-lactamase activity using Centa (Calbiochem, Gibbstown, N.J.) or Nitrocefin (EMD Millipore chemicals, Darmstadt, Germany) as a reporter β-lactamase substrate for activity in the isolated fractions. Active fractions were pooled, concentrated and further purified by gel filtration chromatography on a Superdex 75 prep grade gel filtration column (GE Healthcare, Piscataway, N.J.) pre-equilibrated in 50 mM Hepes pH 7.5, 150 mM NaCl. Active fractions were pooled concentrated, quantitated by BCA protein determination (Thermo Scientific, Rockford, Ill.), dialyzed into PBS and frozen at −80° C. in 20% glycerol until use.
# (§3) An equal volume of diluted enzyme stock was added, and the plates were incubated at 37° C. for 15 min. Nitrocefin was used as substrate for p99 AmpC, VIM-2 and OXA-1 and dispensed into each well at a final concentration of 100 μM. Absorbance at 486 nm was immediately monitored for 10 min using a Biotek Powerwave XS2 microplate spectrophotometer using the GEN5 software package (Biotek Instruments, Winooski Vt.). In an analogous fashion, imipenem was used as substrate for Kpc-2 and Cefotaxime was used for SHV-5, while changes in absorbance upon hydrolysis of the β-lactam ring were monitored at 300 nm and 260 nm respectively in UV-transparent 96-well microtiter assay plates. Maximum rates of hydrolysis were compared to those in control wells (without inhibitors), and percentages of enzyme inhibition were calculated for each concentration of inhibitor. The concentration of inhibitor needed to reduce the initial rate of hydrolysis of substrate by 50% (IC50) was calculated as the residual activity of β-lactamase at 486 nm using GraFit version 7 kinetics software package (Erithacus Software, Surrey, UK).
# (§4) Using the methodology described above, examples of the current invention were evaluated for their ability to inhibit β-lactamase enzymes from all four Ambler classifications (A through D). […] NT=Not tested.
# [5] = system: K. pneumoniae A-1797 expressing KPC-2 and VIM-4; test: Broth microdilution MIC, K. pneumoniae A-1797 KPC-2/VIM-4; format: cell-based; details: fixed 4 μg/mL meropenem; CAMHB, 16-20 hours at 37° C.
# How it was run: as §1
# [6] = system: K. pneumoniae 156319 expressing KPC-3; test: Broth microdilution MIC, K. pneumoniae 156319 KPC-3; format: cell-based; details: fixed 4 μg/mL meropenem; CAMHB, 16-20 hours at 37° C.
# How it was run: as §1
# [7] = target: T2, SHV-5 β-lactamase (Class A ESBL) (Klebsiella pneumoniae, UniProt P0A3M1); test: β-Lactamase inhibition, SHV-5; format: biochemical
# T2 construct: made in house; host or cells: E. coli BL21(DE3)
# T2 sequence (P0A3M1 22-286): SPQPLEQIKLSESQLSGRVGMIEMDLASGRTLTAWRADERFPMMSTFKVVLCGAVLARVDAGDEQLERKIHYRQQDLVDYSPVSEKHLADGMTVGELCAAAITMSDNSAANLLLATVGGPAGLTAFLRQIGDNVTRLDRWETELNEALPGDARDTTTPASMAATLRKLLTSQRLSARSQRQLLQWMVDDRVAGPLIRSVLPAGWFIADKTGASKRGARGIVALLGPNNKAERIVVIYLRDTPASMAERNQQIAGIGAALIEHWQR
# Procedure: as §2, §3, §4
# [8] = target: T3, p99 AmpC β-lactamase (Class C) (Enterobacter cloacae, UniProt P05364); test: β-Lactamase inhibition, p99 AmpC; format: biochemical
# T3 construct: made in house; host or cells: E. coli BL21(DE3)
# T3 sequence (P05364 21-381): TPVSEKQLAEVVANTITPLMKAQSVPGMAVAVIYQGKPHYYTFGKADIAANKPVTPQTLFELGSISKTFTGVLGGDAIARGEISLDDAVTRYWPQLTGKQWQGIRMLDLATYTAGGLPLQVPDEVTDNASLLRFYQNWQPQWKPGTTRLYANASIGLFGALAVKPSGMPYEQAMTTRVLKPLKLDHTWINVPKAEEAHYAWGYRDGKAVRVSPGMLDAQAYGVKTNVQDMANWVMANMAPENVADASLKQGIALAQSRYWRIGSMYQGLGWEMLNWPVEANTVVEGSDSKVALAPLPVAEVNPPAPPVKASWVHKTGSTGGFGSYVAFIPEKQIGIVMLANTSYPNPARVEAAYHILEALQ
# Procedure: as §2, §3, §4
# [9] = target: T4, VIM-2 metallo-β-lactamase (Class B) (Pseudomonas aeruginosa, UniProt Q9K2N0); test: β-Lactamase inhibition, VIM-2; format: biochemical; details: nitrocefin 100 μM, 486 nm; 15 min preincubation at 37° C., PBS pH 7.4
# T4 construct: made in house; host or cells: E. coli BL21(DE3)
# Procedure: For Vim-2 metallo β-lactamase, the procedure was identical with the following exceptions, first the protein was not pH adjusted to pH 5 with 50 mM sodium acetate, second, the chromatography step was changed to a 5 ml Q sepharose anion exchange column pre-equilibrated with 50 mM Hepes pH 7.5, and elution of the protein was achieved by a linear gradient of NaCl (0-600 mM). Finally, the VIM-2 purification required a second run (3rd step) on the Q sepharose anion exchange column to achieve acceptable purity (>90%).
# as §3, §4
# [10] = target: T5, KPC-2 β-lactamase (Class A carbapenemase) (Klebsiella pneumoniae, UniProt Q9F663); test: β-Lactamase inhibition, KPC-2; format: biochemical; details: imipenem substrate, 300 nm; 15 min preincubation at 37° C., PBS pH 7.4
# T5 construct: made in house; host or cells: E. coli BL21(DE3)
# T5 sequence (Q9F663 25-293, looked up): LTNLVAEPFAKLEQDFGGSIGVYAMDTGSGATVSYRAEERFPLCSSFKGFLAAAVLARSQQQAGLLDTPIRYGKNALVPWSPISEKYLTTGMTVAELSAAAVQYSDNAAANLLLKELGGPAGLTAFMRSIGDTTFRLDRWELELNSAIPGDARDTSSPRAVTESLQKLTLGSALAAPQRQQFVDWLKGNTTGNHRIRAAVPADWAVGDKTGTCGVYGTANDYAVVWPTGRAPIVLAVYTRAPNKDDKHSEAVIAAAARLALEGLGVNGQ
# Procedure: as §2, §3, §4
# [11] = system: S. aureus MSSA-7 producing penicillinase PC-1; test: Broth microdilution MIC, S. aureus MSSA-7 PC-1; format: cell-based; details: fixed 4 μg/mL piperacillin; CAMHB, 16-20 hours at 37° C.
# How it was run: as §1
Compound,"MIC of example compound in presence of fixed β-lactam: Fixed Mero, P. aerug. Ps296 VIM-2 [1]","MIC of example compound in presence of fixed β-lactam: Fixed CAZ, E. coli ESBL4 CTX-M-15 [2]","MIC of example compound in presence of fixed β-lactam: Fixed CAZ, E. cl. 144200 p99 AmpC [3]",IC50 [4],"MIC of example compound in presence of fixed β-lactam: Fixed Mero, K. P. A-1797 KPC-2 VIM-4 [5]","MIC of example compound in presence of fixed β-lactam: Fixed Mero, K. P. 156319 KPC-3 [6]",IC50 [7],IC50 [8],IC50 [9],IC50 [10],"MIC of example compound in presence of fixed β-lactam: Fixed Pip, S. aureus MSSA-7 PC-1 [11]"
"O=C(CC1CCNCC1)N[C@H]1Cc2cccc(C(=O)O)c2OB1O [Example 32, 2-Hydroxy-3-(2-piperidin-4-yl-acetylamino)-3,4-dihydro-2H-benzo[e][1,2]oxaborinine-8-carboxylic acid]",A (an MIC of the fixed β-lactam antibiotic in the presence of >32 μg/mL of a β-lactamase inhibitor),C (the MIC in the presence of <4 μg/mL of a β-lactamase inhibitor),C (the MIC in the presence of <4 μg/mL of a β-lactamase inhibitor),100 to 1000 nM,A (an MIC of the fixed β-lactam antibiotic in the presence of >32 μg/mL of a β-lactamase inhibitor),A (an MIC of the fixed β-lactam antibiotic in the presence of >32 μg/mL of a β-lactamase inhibitor),10000 to 100000 nM,< 100 nM,10000 to 100000 nM,100 to 1000 nM,C (the MIC in the presence of <4 μg/mL of a β-lactamase inhibitor)
"O=C(CN1CCN(c2ccccn2)CC1)N[C@H]1Cc2cccc(C(=O)O)c2OB1O [Example 2, 2-Hydroxy-3-[2-(4-pyridin-2-yl-piperazin-1-yl)-acetylamino]-3,4-dihydro-2H-benzo[e][1,2]oxaborinine-8-carboxylic acid]",A (an MIC of the fixed β-lactam antibiotic in the presence of >32 μg/mL of a β-lactamase inhibitor),C (the MIC in the presence of <4 μg/mL of a β-lactamase inhibitor),C (the MIC in the presence of <4 μg/mL of a β-lactamase inhibitor),100 to 1000 nM,A (an MIC of the fixed β-lactam antibiotic in the presence of >32 μg/mL of a β-lactamase inhibitor),B (the MIC in the presence of between 8 and 32 μg/mL of a β-lactamase inhibitor),< 100 nM,< 100 nM,1000 to 10000 nM,100 to 1000 nM,C (the MIC in the presence of <4 μg/mL of a β-lactamase inhibitor)
"N#CCN1CCC(CC(=O)N[C@H]2Cc3cccc(C(=O)O)c3OB2O)CC1 [Example 35, 3-[2-(1-Cyanomethyl-piperidin-4-yl)-acetylamino]-2-hydroxy-3,4-dihydro-2H-benzo[e][1,2]oxaborinine-8-carboxylic acid]",A (an MIC of the fixed β-lactam antibiotic in the presence of >32 μg/mL of a β-lactamase inhibitor),C (the MIC in the presence of <4 μg/mL of a β-lactamase inhibitor),C (the MIC in the presence of <4 μg/mL of a β-lactamase inhibitor),100 to 1000 nM,B (the MIC in the presence of between 8 and 32 μg/mL of a β-lactamase inhibitor),B (the MIC in the presence of between 8 and 32 μg/mL of a β-lactamase inhibitor),100 to 1000 nM,100 to 1000 nM,10000 to 100000 nM,100 to 1000 nM,C (the MIC in the presence of <4 μg/mL of a β-lactamase inhibitor)
